# Test results taken from publication PMC12040169 (PLOS Biology, 2025).
# Test: in vitro
# Conditions: human, hela cells, % viability
row,Compound,"viability at 28.5 h, 10 µM"
1,CCCC(=O)Nc1ccc(-c2csc(N3CCCC3=O)n2)cc1 [CBK306088],82%
2,CC(=O)c1cccc(NC(=O)CCn2[nH]c(=O)ccc2=O)c1 [CBK306094],91.4%
3,O=C(c1ccccc1)N1CCN(Cc2cc(=O)n3ccsc3n2)CC1 [CBK306095],94.4%
4,O=C(c1ccccc1O)N1CCN(Cc2cc(=O)n3ccsc3n2)CC1 [CBK306096],90.2%
5,CCc1nnc(SCC(=O)Nc2ccc(CN3CCOCC3)cc2)[nH]1 [CBK306097],84.7%
6,O=C(c1ccc(O)nc1)N1CCN(Cc2cc(=O)n3ccsc3n2)CC1 [CBK306098],86.3%
7,COCCNC(=O)c1cc(C2CC2)nc2c1cnn2C(C)C [CBK306099],101%
8,CCN1CCC(NC(=O)CSc2nc3ccccc3n2CCOC)CC1 [CBK306100],118%
9,COCCN1CCN(c2nc(-c3ccncc3)nc3c2CCC3)CC1 [CBK306101],95.7%
10,Cc1nc(C)n(CC2CCCCN2Cc2cn3ccccc3c2C#N)n1 (stereo not drawn) [CBK306102],85.1%
11,Cc1nc(C)n(CC2CCCN(Cc3cn4ccccc4c3C#N)C2)n1 (stereo not drawn) [CBK306103],92.6%
12,CN(CC(=O)Nc1ccn(Cc2cccnc2)n1)c1ccc(C#N)cn1 [CBK306105],87.3%
13,CN(C(=O)c1cccn1C)C1CCN(c2ncnc3ccccc23)CC1 [CBK306110],91.8%
14,NC(=O)COc1ccc(CNC(=O)CN2CCc3sccc3C2)cc1 [CBK306111],99.4%
15,Cc1nc(SCCO)c2c(=O)n(C)c(=O)n(CC(C)C)c2n1 [CBK306114],85.8%
16,CCOc1ccc(CN2CCN(CC(=O)Nc3cc(C)on3)CC2)cc1 [CBK306116],115%
17,Cc1cccc(NCC2CCN(CC(=O)Nc3cc(C)on3)C2)n1 (stereo not drawn) [CBK306118],90.4%
18,Cc1ccnc(NCC2CCN(CC(=O)Nc3cc(C)no3)C2)c1 (stereo not drawn) [CBK306121],91.3%
19,Cc1cccn2cc(CC(=O)NCCNC(=O)OC(C)(C)C)nc12 [CBK306122],100%
20,O=C(CCc1ccccc1F)NC1CCc2nccn2C1 (stereo not drawn) [CBK306124],113%
21,CNC(=O)NC(=O)CN1CCC(CNc2ncccc2C#N)C1 (stereo not drawn) [CBK306126],77.4%
22,COC(=O)c1ccc(N2CCN(Cc3nnnn3C3CC3)C(C)C2)cc1 (stereo not drawn) [CBK306129],89.6%

row,Compound,"viability at 28.5 h, 10 µM"
1,Cc1ccc(-c2nn(CCC#N)cc2C(=O)N2CCCCC2)cc1C [CBK306131],94.4%
2,CCOC(=O)c1cnn2c(O)cc(CN(CC(C)(C)O)C(C)C)nc12 [CBK306133],93.6%
3,CC(NC(=O)CCc1cnn(C)c1)c1cccc(-n2ccnc2)c1 (stereo not drawn) [CBK306139],97.3%
4,CC(=O)c1ccc(C)cc1OC(=O)C1CCCN(S(C)(=O)=O)C1 (stereo not drawn) [CBK306140],115%
5,O=C(CN1CCCCC1Cn1cccn1)NCc1ccccn1 (stereo not drawn) [CBK306146],84%
6,COc1ccc(CCNC(=O)CN2CCCC2Cn2cccn2)cc1 (stereo not drawn) [CBK306147],92.1%
7,CCOC(=O)c1sc2nc(C(C)N(C)Cc3ccco3)[nH]c(=O)c2c1C (stereo not drawn) [CBK306148],106%
8,CCOC(=O)C1CCCN(C(=O)Cn2c(C)nc3ccccc3c2=O)C1 (stereo not drawn) [CBK306150],77.9%
9,Cc1csc(N2CCN(CC(O)COCc3ccco3)CC2)n1 (stereo not drawn) [CBK306151],98.5%
10,Cc1ccccc1Nc1nc(N)nc(CN2CCCC2)n1 [CBK306152],102%
11,CCn1cc(CN2CCCN(C(=O)c3cc(Cl)c[nH]3)CC2)cn1 [CBK306153],90.6%
12,CCc1noc(CN2CCN(c3ccc(C(=O)OC)cc3)CC2C)n1 (stereo not drawn) [CBK306154],86.4%
13,Cc1ccnc2nc(C(=O)OC(C)C(=O)N3CCCCCC3)nn12 (stereo not drawn) [CBK306155],102%
14,CN(C)C(=O)NCCNC(=O)c1c[nH]nc1-c1cc2ccccc2o1 [CBK306157],85.7%
15,CCNS(=O)(=O)c1ccc2c(c1)N(Cc1ccc(CO)o1)CC2 [CBK306158],83.8%
16,O=C(NCC1(O)CCSC1)c1c[nH]nc1-c1cc2ccccc2o1 (stereo not drawn) [CBK306159],88.3%
17,CC(CN(C)C(=O)c1c[nH]nn1)Oc1ccc(Cl)c(Cl)c1 (stereo not drawn) [CBK306160],87.5%
18,CC(=O)Nc1cccc(-n2nnnc2SCCCCCF)c1 [CBK306164],110%
19,Cc1ccc(-c2nnc(NCc3cnn(C)c3C)o2)c(C)c1 [CBK306166],88.2%
20,CC(c1ncc(Br)cn1)N1CCN(Cc2noc(C(C)(C)C)n2)CC1 (stereo not drawn) [CBK306168],87.4%
21,Cc1n[nH]nc1C(=O)N(C)CC(C)Oc1ccc(Cl)c(Cl)c1 (stereo not drawn) [CBK306173],85.2%
22,Cc1ccc2c(c1)nc(CNC(=O)NCCCO)n2C [CBK306174],86.1%

row,Compound,"viability at 28.5 h, 10 µM"
1,CC1(C)CCCN(Cc2nnnn2-c2ccc(S(C)(=O)=O)cc2)CC1 [CBK306177],81.8%
2,CC1(C)CCN(Cc2nnnn2-c2ccc(S(C)(=O)=O)cc2)C1 [CBK306179],94.7%
3,CN(C)c1ncccc1OC1CCN(c2ccnc(C3CC3)n2)C1 (stereo not drawn) [CBK306182],56.3%
4,CCNS(=O)(=O)c1ccc2c(c1)N(Cc1nc(-c3ccco3)no1)CC2 [CBK306184],81.1%
5,O=C(Cc1cn2ccsc2n1)Nc1ccc(N2CCCCC2)cc1 [CBK306185],79%
6,O=C(Nc1cc(Cl)ccc1C(=O)NC1CCC(O)CC1)c1cccs1 (stereo not drawn) [CBK306186],89.2%
7,Cc1ccc2[nH]c(SC(C)C(=O)N3CCOCC3)nc2c1 (stereo not drawn) [CBK306187],96%
8,CCOC(=O)Cc1csc(SCC(=O)N2CCc3ccccc32)n1 [CBK306190],88.8%
9,N#CCCn1cc(C(=O)N2CCCCC2)c(-c2ccc(F)cc2)n1 [CBK306191],91.8%
10,N#Cc1ccsc1NC(=O)CN1CCN(c2cccc(Cl)c2)CC1 [CBK306192],81.1%
11,CC1CCC2(CC1)NC(=O)N(Cc1coc(-c3ccccc3)n1)C2=O (stereo not drawn) [CBK306196],98.3%
12,CCN(CC(=O)Nc1c(F)cccc1F)S(=O)(=O)c1cccc(C#N)c1 [CBK306197],85.4%
13,CCOC(=O)C1CCCN(Cc2nc3cc(Cl)ccc3c(=O)[nH]2)C1 (stereo not drawn) [CBK306198],86.9%
14,CC(C)n1c(CN2CCOCC2)nc2c1c(=O)n(C)c(=O)n2C [CBK306201],83.7%
15,N#CCCn1cc(C(=O)N2CCOCC2)c(-c2cc3ccccc3o2)n1 [CBK306203],104%
16,N#CCCn1cc(C(=O)N2CCOCC2)c(-c2ccccc2)n1 [CBK306207],86%
17,N#CCCn1cc(C(=O)N2CCCCC2)c(-c2cccc(Cl)c2)n1 [CBK306209],80%
18,CCN(C(C)=O)c1nc(CN2CCOC(c3ccc(F)cc3)C2)cs1 (stereo not drawn) [CBK306213],94.3%
19,COCc1cccc(Nc2ncnc3c2cnn3CCO)c1 [CBK306214],93.2%
20,CCCCN(CC(F)(F)F)C(=O)Cc1csc(NC(=O)C(C)C)n1 [CBK306217],99.5%
21,Cc1nc(C)n(CC2CCCN(Cc3nc4c(F)cccc4[nH]3)C2)n1 (stereo not drawn) [CBK306218],110%
22,CC(C)c1nc(CN2CCN(c3ccc4nncn4n3)CC2)cs1 [CBK306219],102%
